Experimental data from patent publication US9316631B1, “ER-stress inducing compounds and methods of use thereof” (Whitehead Institute for Biomedical Research, priority 2012, dated 2016).
Where two headings read alike, the source gives them in different places.

Columns and labels:
[1] = tested on: IDMS cells (HMLE_shEcad, HMLE_Twist) versus control HMLE_shGFP cells; assay: Dose-response cell survival, ATP-based luminescence assay, HMLE cells; design: species or system human; details: for killing of IDMS cells relative to control HMLE cells: 3 days, FIG. 3B, 3C
Protocol: (B) Dose response curves of HMLE_shGFP, HMLE_shEcad and HMLE_Twist cells treated with various concentrations of Cmp302, Cmp308 and Dev4, respectively for 3 days. Cell survival was determined using an ATP-based luminescence assay.
(B) Dose-response curves of HMLE_shGFP, HMLE_shEcad and HMLE_Twist cells treated with various concentrations of Thapsigargin, DTT and A23187 for 3 days. Cell survival was determined using an ATP-based luminescence assay.
(B) Dose-response curves indicating viability of Dev2-treated cell lines
(§1) Cells (3000/well) were plated in 100 μl per well in 96-well plates. One day (24 hr) after seeding, compounds were added in 8 different doses at three replicates per dose for each cell line. Cell viability was measured after 72 hr with the CellTiter-Glo […] Assay (Promega). Paclitaxel, Doxorubicin, Tunicamycin, Thapsigargin, A23187 and DTT were purchased from Sigma Aldrich. Cmp302 and Cmp308 were purchased from Biointerscreen.

[2] = tested on: UPR signaling in HMLER_shGFP and HMLER_Twist cells; assay: UPR signaling (Western blot, XBP1 RT-PCR, ATF6 reporter, qPCR); type: cell-based, human
Protocol: (A) Expression of UPR pathway components in HMLER_shGFP and HMLER_Twist cells that were treated with Dev2, Cmp302, Dev4 or DMSO solvent for 6 h. Western blot analysis for phospho-eIF2α, total eIF2α, CHOP and β-Tubulin. RT-PCR analysis of XBP1 and XBP1 splice variant and GAPDH transcripts.
(D) Western blot analysis of HMLER_shGFP and HMLER_Twist cells treated with vehicle (DMSO), DTT or A23187 for 4 h and probed for p-eIF2α, total eIF2α, CHOP and β-Tubulin (loading control). RT-PCR analysis of XBP1 and XBP1 splice variant and GAPDH transcripts.
(E) Western blot analysis of HMLER_shGFP and HMLER_Twist cells treated with vehicle (DMSO), Tunicamycin or Thapsigargin for 4 h and probed for p-eIF2α, total eIF2α, CHOP and β-Tubulin (loading control). RT-PCR analysis of XBP1 and XBP1 splice variant and GAPDH transcripts.
Reporter activity for each cell line was normalized relative to DMSO treatment.
BIP expression was normalized relative to GAPDH for each sample.
(C) ATF6 activation of HMLER_shGFP and HMLER_Twist cells in response to Tunicamycin, Thapsigargin, DTT and A23187 were measured by ATF6 reporter assay. Reporter activity for each cell line was normalized relative to DMSO treatment.
(D) qPCR analysis for BIP expression in HMLER_shGFP and HMLER_Twist cells treated with Thapsigargin and DTT. BIP expression was normalized relative to GAPDH for each sample.
(E) qPCR analysis for expression of GADD34 in HMLER_shGFP and HMLER_Twist cells treated with Thapsigargin and DTT. GADD34 expression was normalized relative to GAPDH for each sample.
Western blotting was performed as previously described (Gupta et al., 2009). Antibodies used for immunoblotting were as follows: E-cadherin (BD Transduction), Fibronectin (Abcam), Actin, Cytokeratin 8/18, PERK, eIF2α, peIF2α, CHOP, Caspase-3 and Bip (Cell Signal Technology).
p5xATF6-GL3 and hRluc constructs were obtained from Addgene (plasmids 11976 and 24348, provided by Drs. Ron Prywes and Liqun Luo, resp.). 24 hours after co-transfection of 0.3 μg p5xATF6-GL3 and 0.05 μg hRluc plasmids, cells were treated with indicated compounds for another 6 hours, and ATF6 activity was measured by a dual luciferase assay (Promega).

[3] = tested on: protein secretion of HMLE cells; assay: 35S-methionine/cysteine labeling of secreted proteins, HMLE cells; type: cell-based, human; details: control experiment; data not shown
Protocol: (F) Autoradiograph showing ^35S-methionine/cysteine-labeled secreted proteins in IDMS (HMLE_shEcad, HMLE_Twist) and control (HMLE_shGFP) cells. Secreted proteins were harvested at the indicated time points. Quantification of signal in each lane is provided in arbitrary units. The indicated proteins were identified by mass-spectrometry.
(§2) Equal numbers of cells were cultured in the presence of ^35S-methionine/cysteine in medium with reduced methionine/cysteine content and minimal serum. At the indicated timepoints, aliquots of medium were extracted for analysis. Medium was centrifuged at 800×g for 2 min to pellet any whole cell contaminants. Equal volume of medium was reduced in loading buffer, separated by SDS-PAGE and analyzed by autoradiography.
To determine whether overall protein secretion was elevated in IDMS cells, total protein synthesis and secretion was measured using ^35S-methionine/cysteine. Labeled proteins secreted by cells into the culture medium (“secretome”) were visualized by gel electrophoresis and autoradiography. After three hours of ^35S-methionine/cysteine labeling, we observed a 9.6-fold and 13.7-fold increase in the secretome of IDMS cells (HMLE_shEcad and HMLE_Twist, resp.) relative to the control epithelial cells (FIG. 4F).

[4] = tested on: HMLER_shGFP and HMLER_Twist cells; assay: Viability with thapsigargin in presence or absence of salubrinal; type: cell-based, human; details: 10 μM salubrinal, 3 days; FIG. 6F
Protocol: (F) Relative viability of HMLER_shGFP and HMLER_Twist cells treated with increasing doses of thapsigargin in the presence or absence of 10 μM salubrinal for 3 days. Cell viability was assayed with an ATP-based luminescence assay.
as §1

[5] = tested on: HMLE_Twist_GFP / HMLE_shEcad_GFP cells mixed 1:1 with HMLE_shGFP_dsRed cells; assay: Co-culture of GFP-labeled IDMS cells with dsRed-labeled control epithelial cells; type: cell-based, human; details: 1:1 co-culture, 5 days treatment; FIGS. 1D and E
Protocol: (D) Representative fluorescence images of HMLE_shGFP_dsRed and HMLE_Twist_GFP cells were mixed in a 1:1 ratio and treated with 5 nM Paclitaxel, 2 μM Cmp302, 2 μM Cmp308 or DMSO control. Images after 5 days of treatment are shown. Scale bar: 50 μm
(E) Quantification of HMLE_shGFP_dsRed and HMLE_shEcad_GFP cells that were mixed in a 1:1 ratio and treated with Doxorubicin or Dev4. Following a 5 day treatment, the percentages of dsRed-positive and GFP-positive cells were quantified by FACS.
Even though Cmp302 and Cmp308 were selective for IDMS cells when cultured alone, tumors are comprised of heterogeneous populations of cells that could affect the sensitivity or selectivity of the applied chemicals. Therefore GFP-labeled IDMS cells were co-cultured with dsRed-labeled control epithelial cells and then applied Cmp302 and Cmp308.

MDA-MB-157 cells = assay: Dose-response cell survival of MDA-MB-157 cells in suspension versus adherent culture; type: cell-based, human; details: 3 days; FIG. 1I
Protocol: (I) Dose-response curves of MDA-MB-157 cells cultured in adherent or suspension conditions and treated with 8 doses of paclitaxel, Cmp302 or Cmp308 for 3 days. Cell survival was determined using an ATP-based luminescence assay.
as §1
Next, it was determined whether the preferential toxicity of these compounds was unique to the oncogenic modifications of the HMLE breast epithelial cell system. Accordingly, a model was developed in which human breast carcinoma cells progressed towards the IDMS state in the absence of genetic modifications by altering their extracellular contextual signals. […] However, this line adopts an IDMS state when detached from its substratum and cultured in suspension (FIG. 1F). […] This morphologic alteration was accompanied by upregulation of mesenchymal markers (fibronectin) and downregulation of epithelial proteins (cytokeratin 8/18 and E-cadherin) (FIG. 1G). […]

[6] = tested on: MDA-MB-157 cells (CD44hiCD24lo and CD44loCD24hi fractions); assay: Flow cytometry of CD44/CD24 fractions of treated MDA-MB-157 cells; type: cell-based, human; details: suspension, 36 h; FIG. 1J
Protocol: (J) MDA-MB-157 cells were treated with Cmp308, paclitaxel or DMSO solvent in suspension for 36 h and analyzed by flow cytometry for CD44 and CD24 expression. The percentage of CD44^hiCD24^lo and CD44^loCD24^hi cells in were quantified and normalized relative to DMSO controls.
FACS analysis was performed according to the manufacturer's protocol (BD Biosciences). Reagents used in FACS were as follows: APC-conjugated anti-CD44 antibody (clone G44-26), PE-conjugated anti-CD24 antibody (clone ML5), and propidium iodide (5 μg/ml) (BD Bioscience).

SUM159 cancer cells [7] = assay: Tumorsphere formation of pretreated SUM159 cells; type: cell-based, human; details: pretreatment 3 days (1 μg/ml Tunicamycin, 10 nM Thapsigargin), 3 days recovery
Protocol: (A) Representative brightfield images and quantification of tumorsphere formation of SUM159 cancer cells treated with 5 nM Paclitaxel, 1 μg/ml Tunicamycin, 10 nM Thapsigargin, or DMSO vehicle for 3 days followed by another 3 days of recovery in regular medium. Scale bar: 50 μm
Mammosphere formation assays were performed as described (Dontu et al., 2003), but with 0.6% methylcellulose (Stem Cell Technologies). Five thousand cells were plated per well in low-adherence 24-well plates and cultured for 5-8 days prior to being counted and photographed.
(§3) To determine whether chemical ER perturbants could abrogate the malignancy of IDMS cells, SUM159 cancer cells (derived from a primary anaplastic Basal-B breast carcinoma) were treated with tunicamycin, thapsigargin or paclitaxel at their respective IC75 doses. Cells were then allowed to recover in the absence of treatment prior to subjecting them to functional assays for IDMS-related phenotypes.

SUM159 cancer cells [8] = assay: Transwell migration of pretreated SUM159 cells; type: cell-based, human; details: 5 h migration
Protocol: (B) Representative images of crystal violet staining of SUM159 cells following transwell migration assay. Transwell migration assay was performed on SUM159 cancer cells treated as in (A). Cells that have migrated for 5 h following seeding into 8 μm pore inserts were visualize and quantified. Scale bar: 50 μm
as §3

[9] = tested on: protein secretion of SUM159 cells; assay: 35S-methionine/cysteine labeling of secreted proteins, pretreated SUM159 cells; type: cell-based, human; details: pretreatment 3 days, recovery 3 days
Protocol: (B) Autoradiograph showing ^35S-methionine/cysteine-labeled secreted proteins in SUM159 cells that were pretreated with 1 μg/ml Tunicamycin, 10 nM Thapsigargin, 0.1 μM A23187 or DMSO vehicle for 3 days and allowed to recover in the absence of chemical for 3 days prior to the ^35S-methionine/cysteine labeling.
as §2

SUM159 cells = assay: Dose-response of pretreated SUM159 cells to paclitaxel or doxorubicin; type: cell-based, human; details: pretreated SUM159, then paclitaxel or doxorubicin 3 days; FIG. 7D
Protocol: (D) Dose-response curves of SUM159 cells pre-treated as in (C) and then treated with 8 doses of paclitaxel or doxorubicin for 3 days. Cell survival was determined using an ATP-based luminescence assay.
as §1

[10] = 6 h treatment (Cmp302, Dev4, Dev2) or 4 h (DTT, A23187, tunicamycin, thapsigargin), IDMS versus non-IDMS cells

Compound: O[C@H](CS)[C@H](O)CS (racemic) [DTT, dithiothreitol]
- killing of IDMS cells relative to control HMLE cells [1]: selective lethality
- UPR signaling (XBP1 splicing, eIF2α phosphorylation, ATF6 activation) [2, 10]: selectively induced

Compound: CNc1ccc2oc(C[C@H]3O[C@@]4(CC[C@H]3C)O[C@H]([C@H](C)C(=O)c3ccc[nH]3)[C@H](C)C[C@H]4C)nc2c1C(=O)O [A23187]
- killing of IDMS cells relative to control HMLE cells [1]: selective lethality
- UPR signaling (XBP1 splicing, eIF2α phosphorylation, ATF6 activation) [2]: selectively induced

Compound: C[C@H]1CCC/C=C/[C@@H]2C[C@H](O)C[C@H]2[C@H](O)/C=C/C(=O)O1 [Brefeldin-A, Brefeldin A]
- protein secretion [3]: completely abolished protein secretion

Compound: O=C(/C=C/c1ccccc1)NC(NC(=S)Nc1cccc2cccnc12)C(Cl)(Cl)Cl (centres unmarked) [Salubrinal, salubrinal]
- sensitization to thapsigargin treatment [4]: further sensitized HMLER-Twist IDMS, but not control cells

Compound: COc1cccc2c1C(=O)c1c(O)c3c(c(O)c1C2=O)C[C@@](O)(C(=O)CO)C[C@@H]3O[C@H]1C[C@H](N)[C@H](O)[C@H](C)O1 [doxorubicin]
- effect on IDMS cells in mixed populations [5]: selective expansion of IDMS cells

Compound: CC(=O)O[C@H]1C(=O)[C@@]2(C)[C@H]([C@H](OC(=O)c3ccccc3)[C@]3(O)C[C@H](OC(=O)[C@H](O)[C@@H](NC(=O)c4ccccc4)c4ccccc4)C(C)=C1C3(C)C)[C@]1(OC(C)=O)CO[C@@H]1C[C@@H]2O [paclitaxel]
- effect on IDMS cells in mixed populations [5]: selective expansion of IDMS cells
- toxicity towards IDMS MDA-MB-157 cells in suspension relative to non-IDMS cells in adherent conditions (MDA-MB-157 cells): decreased toxicity
- preferential toxicity towards CD44hiCD24lo versus CD44loCD24hi fraction [6]: did not exhibit this preferential toxicity

Compound: C/C=C(/C)C(=O)O[C@H]1C(C)=C2[C@H]([C@@H]1OC(=O)CCCCCCC)[C@@](C)(OC(C)=O)C[C@H](OC(=O)CCC)[C@@]1(O)[C@H]2OC(=O)[C@@]1(C)O [thapsigargin]
- killing of IDMS cells relative to control HMLE cells [1]: selective lethality
- UPR signaling (XBP1 splicing, eIF2α phosphorylation, ATF6 activation) [2, 10]: selectively induced
- tumorsphere-forming ability relative to paclitaxel- or DMSO-treated cells (SUM159 cancer cells [7]): significantly reduced
- migratory ability relative to paclitaxel-pretreated cells (SUM159 cancer cells [8]): strongly impaired
- protein secretion relative to paclitaxel- and DMSO-treated cells [9]: strongly inhibited
- sensitization of pretreated cells to chemotherapy (SUM159 cells): sensitized SUM159 cells to paclitaxel and doxorubicin

Compound: tunicamycin
- IC50 (toxicity) ([1]; both IDMS and control HMLE cells, data not shown): < 10^−10 g/ml
- UPR signaling (XBP1 splicing, eIF2α phosphorylation, ATF6 activation) [2, 10]: more readily induced in IDMS cells
- dose required for UPR induction relative to toxic dose ([2]; IDMS cells, FIG. 3E): 100 fold
- tumorsphere-forming ability relative to paclitaxel- or DMSO-treated cells (SUM159 cancer cells [7]): significantly reduced
- migratory ability relative to paclitaxel-pretreated cells (SUM159 cancer cells [8]): strongly impaired
- protein secretion relative to paclitaxel- and DMSO-treated cells [9]: strongly inhibited
- sensitization of pretreated cells to chemotherapy (SUM159 cells): sensitized SUM159 cells to paclitaxel and doxorubicin
